Test results from US10550144B2, “6-aryl-9-glycosylpurines and use thereof” (UNIVERZITA PALACKEHO V OLOMOUCI, priority 2014, dated 2020).
Read-outs that look alike come from different tables or passages of the source.

Test system: skin fibroblasts BJ and keratinocytes HaCaT
Assay: MTT in vitro cytotoxicity test on skin cells
Format: cell-based, human
Procedure: MTT assay is a standard test of toxicity based on photometric measurement of the ability of metabolically active cells to reduce MTT (3-(4,5-dimethylthiazol-2-yl)-2,5-diphenyltetrazolium bromide). Using the assay, the effects of 72 hour treatments with several concentrations of the compounds (sixfold dilution, maximal concentration=50 microM) on viability of skin fibroblasts BJ and keratinocytes HaCaT were evaluated. About 5,000 cells were seeded per well of a 96-well plate 24 hours before the treatment. DMSO vehiculum was used as a negative control. After 72 hour treatment, new medium with MTT (Sigma, M2128) was added to a final concentration of 0.5 mg/ml. After 3 hours, medium was removed and resulting formazan in the cells was dissolved in DMSO. The absorbance was measured at 570 nm (640 nm reference wavelength). The IC50 values were calculated from the dose-response curves. 6-Benzylaminopurine riboside and 6-furfurylaminopurine riboside were used as positive controls they were toxic in the MTT test.

Structure (SMILES)	toxicity in the MTT test (72 hour treatment)	toxicity in the MTT test	IC50 (MTT, 72 hour treatment, maximal concentration 50 microM, BJ and HaCaT, table does not separate the cell lines) [nM]
OC[C@H]1OC(n2cnc3c(NCc4ccco4)ncnc32)[C@H](O)[C@@H]1O (stereo partly drawn) [6-furfurylamino-9-ribosylpurine]	toxic		
OC[C@H]1OC(n2cnc3c(NCc4ccccc4)ncnc32)[C@H](O)[C@@H]1O (stereo partly drawn) [6-benzylaminopurin9-ribosylpurine]		toxic	≤ 3000
